The values below come from patent publication US10034886B2, “GLP-1 receptor modulators” (Celgene International II SÀRL, priority 2014, dated 2018).

For this experiment, the target named is T1, GLP-1R (Homo sapiens, UniProt P43220).
T1 construct: host or cells: GLP-1R CRE-bla CHO-K1 cells
As to the kind of experiment: EC20 GLP-1(9-36) PAM cAMP assay: dose response of compound in the presence of fixed concentration of GLP-1(9-36). The experiment is classed as cell-based. The settings on record: GLP-1R CRE-bla CHO-K1 cells, read-out: EC20 GLP-1(9-36) PAM EC50. The method in brief: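 Positive allosteric modulation read as cAMP accumulation: compound titrations (12 points) combined with an EC20 level of GLP-1(9-36) on CHO-K1 GLP-1R CRE-bla cells, IBMX present, 30 min, 37 °C, pH 7.4 buffer. Luminescence converted to cAMP via standards; non-linear fit gave EC50 and Emax.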
Background: Cyclic AMP is a second messenger, typically raised through Gs and lowered through Gi signalling.

Setting [1] is: dose response of compound in presence of fixed concentration of GLP-1(9-36).
Where [2] appears, read: compound dose response with fixed concentration of GLP-1(9-36).

Where two headings read alike, the source gives them in different places.

T1 sequence (P43220 24-463): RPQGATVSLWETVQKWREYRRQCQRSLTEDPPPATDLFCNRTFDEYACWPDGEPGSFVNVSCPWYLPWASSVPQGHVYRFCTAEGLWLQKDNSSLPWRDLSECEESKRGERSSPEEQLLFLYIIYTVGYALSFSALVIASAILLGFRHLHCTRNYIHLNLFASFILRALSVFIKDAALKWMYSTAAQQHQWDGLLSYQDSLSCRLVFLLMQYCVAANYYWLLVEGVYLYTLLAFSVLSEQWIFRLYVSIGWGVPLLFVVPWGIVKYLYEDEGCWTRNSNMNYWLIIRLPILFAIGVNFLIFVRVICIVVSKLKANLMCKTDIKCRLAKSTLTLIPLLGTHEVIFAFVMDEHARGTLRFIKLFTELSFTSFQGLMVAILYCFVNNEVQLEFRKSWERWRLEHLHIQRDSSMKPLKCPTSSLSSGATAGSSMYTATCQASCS
T1 sequence (P01275 100-127 partner limits assumed): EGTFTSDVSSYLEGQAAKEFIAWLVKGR

A word on the EC50: it is the midpoint of the concentration-response curve. Take `CCCCCCCOc1ccc(-c2cnc(-c3ccc(C[C@H](NC(=O)c4ccc(C(C)(C)C)s4)C(=O)N[C@H](C)C(=O)O)cc3)nc2)nc1` [Compound 1063]: the concentration giving a half-maximal response (EC50) under setting [1] is below 800 nM. `CCCCCOc1ccc(-c2cnc(-c3ccc(C[C@H](NC(=O)c4ccc(C(C)(C)C)s4)C(=O)NC(C(=O)O)C(O)c4ccccc4)cc3)nc2)cc1` (stereo partly drawn) [Compound 925]: the EC50 under setting [1] was 2500 to 5000 nM. The same measure, in the same setting: next, `CCCCCCCOc1ccc(-c2cnc(-c3ccc(C[C@H](NC(=O)c4ccc(C(C)(C)C)s4)C(=O)N[C@@H](C(=O)O)[C@H](C)c4ccccc4)cc3)nc2)cc1` [Compound 910]: 800 to 2500 nM; `CC(C)(C)c1ccc(C(=O)N[C@@H](Cc2ccc(-c3ncc(-c4ccc(C5CCCC5)cc4)cn3)cc2)C(=O)N2CC(C(=O)O)C2)s1` [Compound 1089]: 800 to 2500 nM. For the compound `C[C@@H](NC(=O)[C@H](Cc1ccc(-c2ncc(-c3ccc(-c4ccc(Br)cc4)cc3)cn2)cc1)NC(=O)c1ccc(C(C)(C)C)s1)C(=O)O` [Compound 1293], the EC50 under setting [2] is below 800 nM.

For `CCCc1ccc(-c2ccc(-c3cnc(-c4ccc(C[C@H](NC(=O)c5ccc(C(F)(F)F)cc5)C(=O)N5CC(C(=O)O)C5)cc4)nc3)c(F)c2)cc1` [Compound 1400], under setting [2], the EC50 was below 800 nM. With `CCC[C@H]1CC[C@H](C2CCN(c3cnc(-c4ccc(C[C@H](NC(=O)c5ccc(C(C)(C)C)s5)C(=O)N5CC(F)(C(=O)O)C5)cc4)nc3)CC2)CC1` [Compound 1451], the EC50 under setting [2] was 800 to 2500 nM. For `CC(C)(C)c1ccc(C(=O)N[C@@H](Cc2ccc(-c3ncc(-c4ccc(OCCC5CCCCC5)cc4)cn3)cc2)C(=O)NCCC(=O)O)cc1` [Compound 474, (S)-3-(2-(4-(tert-butyl)benzamido)-3-(4-(5-(4-(2-cyclohexylethoxy)phenyl)-pyrimidin-2-yl)phenyl)propanamido)propanoic acid], the EC50 under setting [1] was 800 to 2500 nM. Same read-out and setting: with `CCCCCCCOc1ccc(-c2cnc(-c3ccc(C[C@H](NC(=O)c4ccc(C(F)(F)F)cc4)C(=O)N[C@H](C)C(=O)O)cc3)nc2)cc1` [Compound 822] the figure was 2500 to 5000 nM; with `CC(C)(C)c1ccc(C(=O)N[C@@H](Cc2ccc(-c3ncc(-c4ccc([C@H]5CC[C@H](C)CC5)cc4)cn3)cc2)C(=O)N2CC(C(=O)O)C2)s1` [Compound 1176], below 800 nM.

`CCCCCCCOc1ccc(-c2cnc(-c3ccc(C[C@H](NC(=O)c4ccc(C(C)(C)C)cc4)C(=O)NCC(C(=O)O)c4ccccc4)cc3)nc2)cc1` (stereo partly drawn) [Compound 556]: the EC50 under setting [1] is below 800 nM. On to `Cc1cc(-c2cnc(-c3ccc(C[C@H](NC(=O)c4ccc(C(C)(C)C)s4)C(=O)N4CC(C(=O)O)C4)cc3)nc2)ccc1OC(C)C` [Compound 1093], for which the EC50 under setting [1] was below 800 nM. Regarding `C[C@@H](NC(=O)[C@H](Cc1ccc(-c2ncc(-c3ncc(-c4ccccc4)cn3)cn2)cc1)NC(=O)c1ccc(C(C)(C)C)s1)C(=O)O` [Compound 1132], the EC50 under setting [1] lay within 800 to 2500 nM. `CCC[C@H]1CC[C@H](C2CCN(c3cnc(-c4ccc(C[C@H](NC(=O)c5ccc(C(C)(C)C)s5)C(=O)N[C@H](CC(N)=O)C(=O)O)cc4)nc3)CC2)CC1` [Compound 1460]: the EC50 under setting [2] is below 800 nM. On the same count and under the same terms, next, `CCCc1ccc(-c2ccc(-c3cnc(-c4ccc(C[C@H](NC(=O)c5ccc(C6CC6)s5)C(=O)N5CC(C(=O)O)C5)cc4)nc3)c(F)c2)cc1` [Compound 1406]: below 800 nM. For the compound `CC(C)(C)c1ccc(C(=O)N[C@@H](Cc2ccc(-c3ncc(-c4ccc(C5CCC(F)(F)CC5)cc4)cn3)cc2)C(=O)N2CC(C(=O)O)C2)s1` [Compound 1183], the EC50 under setting [1] was below 800 nM. Same read-out and setting: with `CCCCCCCOc1ccc(-c2cnc(-c3ccc(C[C@H](NC(=O)c4ccc(C(C)(C)C)s4)C(=O)N4CCC(CC(=O)O)C4)cc3)nc2)cc1` (stereo partly drawn) [Compound 613] the figure was 800 to 2500 nM. Same read-out and setting: next, `CCCCCCCOc1ccc(-c2cnc(-c3ccc(C[C@H](NC(=O)c4ccc(C(C)(C)C)cc4)C(=O)N4C[C@H](O)C[C@H]4C(=O)O)cc3)nc2)cc1` [Compound 567]: below 800 nM. Consider `CCCCc1ccc(C2CN(c3cnc(-c4ccc(C[C@H](NC(=O)c5ccc(C(C)(C)C)s5)C(=O)N5CC(C(=O)O)C5)cc4)nc3)C2)cc1` [Compound 1503], for which the EC50 under setting [2] was in the range of 800 to 2500 nM.

With `CCCCCCCOc1ccc(-c2cnc(-c3ccc(C[C@H](NC(=O)c4ccc(C(C)(C)CC)cc4)C(=O)N[C@H](C)C(=O)O)cc3)nc2)cc1` [Compound 834], the EC50 under setting [1] is 800 to 2500 nM. As for `COc1cccc(C2CCN(c3cnc(-c4ccc(C[C@H](NC(=O)c5ccc(C(C)(C)C)s5)C(=O)N5CC(C(=O)O)C5)cc4)nc3)CC2)c1` [Compound 1477], the EC50 under setting [2] was below 800 nM.

Consider `CC[C@H]1CC[C@H](c2ccc(-c3cnc(-c4ccc(C[C@H](NC(=O)c5cnn(C(C)(C)C)c5)C(=O)N5CC(C(=O)O)C5)cc4)nc3)cc2)CC1` [Compound 1165], for which the EC50 under setting [1] was below 800 nM. Consider `CC[C@H]1CC[C@H](c2ccc(-c3cnc(-c4ccc(C[C@H](NC(=O)c5ccc(C(C)(C)C)s5)C(=O)N[C@H](Cc5c[nH]cn5)C(=O)O)cc4)nc3)cc2)CC1` [Compound 1322], for which, under setting [2], the EC50 is below 800 nM. In the case of `CCCCCCCOc1ccc(-c2cnc(-c3ccc(C[C@H](NC(=O)c4ccc(C(C)(C)C)s4)C(=O)NC(C)CO)cc3)nc2)cc1` (stereo partly drawn) [Compound 387], under setting [1], the EC50 lay in the range of 5000 to 10000 nM. The same measure, in the same setting: next, `CCCCCCCOc1ccc(-c2cnc(-c3ccc(C[C@H](NC(=O)c4ccc(C(C)(C)C)cc4)C(=O)N[C@@H](CCN)C(=O)O)cc3)nc2)cc1` [Compound 475]: 800 to 2500 nM.

For the compound `CCC[C@H]1CC[C@H](C2CCN(c3cnc(-c4ccc(C[C@H](NC(=O)c5cnc(C(C)(C)C)s5)C(=O)N5CC(C(=O)O)C5)cc4)nc3)CC2)CC1` [Compound 1537], the EC50 under setting [2] is below 800 nM. On the same count and under the same terms, with `CCCCc1ccc(CC2CN(c3cnc(-c4ccc(CC(NC(=O)c5ccc(C(C)(C)C)s5)C(=O)N5CC(C(=O)O)C5)cc4)nc3)C2)cc1` (stereo not drawn) [Compound 1510] the figure was 2500 to 5000 nM.

As to `CCCc1ccc(C2CCN(c3cnc(-c4ccc(C[C@H](NC(=O)c5ccc(C(C)(C)C)s5)C(=O)N5CC(C(=O)O)C5)cc4)nc3)CC2)nn1` [Compound 1501], under setting [2], the EC50 was 5000 to 10000 nM.

Consider `CCC[C@H]1CC[C@H](C2CCN(c3cnc(-c4ccc(C[C@H](NC(=O)c5ccc(C(C)(C)C)s5)C(=O)NS(C)(=O)=O)cc4)nc3)CC2)CC1` [Compound 1438, 5-(tert-butyl)-N—((S)-1-(methylsulfonamido)-1-oxo-3-(4-(5-(4-((1s,4r)-4-propylcyclohexyl)piperidin-1-yl)pyrimidin-2-yl)phenyl)propan-2-yl)thiophene-2-carboxamide], for which the EC50 under setting [2] is below 800 nM.

In the case of `CCCCCCCOc1ccc(-c2cnc(-c3ccc(C[C@H](NC(=O)c4ccc(C(C)(C)C)cc4)C(=O)N4C[C@H](O)C[C@@H]4C(=O)O)cc3)nc2)cc1` [Compound 585], the EC50 under setting [1] was 800 to 2500 nM.

As to `CCC[C@H]1CC[C@H](C2CCN(c3cnc(-c4ccc(C[C@H](NC(=O)c5ccc(CC)s5)C(=O)N5CC(C(=O)O)C5)cc4)nc3)CC2)CC1` [Compound 1533], the EC50 under setting [2] is below 800 nM. With `CCCCCCCOc1ccc(-c2cnc(-c3ccc(C[C@H](NC(=O)c4ccc(CCC)s4)C(=O)N4CC(C(=O)O)C4)cc3)nc2)cc1` [Compound 1107], the EC50 under setting [1] lay in the range of 800 to 2500 nM. The same measure, in the same setting: next, `CCCCCCCOc1ccc(-c2cnc(-c3ccc(C[C@H](NC(=O)CN(C)C)C(=O)N[C@H](C)C(=O)O)cc3)nc2)cc1` [Compound 826]: 2500 to 5000 nM. As to `CCC[C@H]1CC[C@H](C2CCN(c3cnc(-c4ccc(C[C@H](NC(=O)c5ccc(C(C)(C)C)s5)C(=O)NC(C(=O)O)c5ccco5)cc4)nc3)CC2)CC1` (stereo partly drawn) [Compound 1454], the EC50 under setting [2] is below 800 nM. On the same count and under the same terms, with `CC[C@H]1CC[C@H](c2ccc(-c3cnc(-c4ccc(C[C@H](NC(=O)c5ccc(C(C)(C)C)s5)C(=O)NCC(=O)O)cc4)nc3)cc2)CC1` [Compound 1323] the figure was below 800 nM.

On to `CCCCCCCOc1ccc(-c2cnc(-c3ccc(C[C@H](NC(=O)c4ccc(C(C)(C)C)s4)C(=O)N[C@@H](Cc4cscn4)C(=O)O)cc3)nc2)cc1` [Compound 627], for which the EC50 under setting [1] is below 800 nM. Turning to `CCC[C@H]1CC[C@H](C2CCN(c3cnc(-c4ccc(C[C@H](NC(=O)c5ccc(C(C)(C)C)s5)C(=O)N5CCC[C@H](C(=O)O)C5)cc4)nc3)CC2)CC1` [Compound 1456], the EC50 under setting [2] was below 800 nM.

Regarding `Cc1cc(-c2ccc(-c3cnc(-c4ccc(C[C@H](NC(=O)c5ccc(C(C)(C)C)s5)C(=O)N5CC(C(=O)O)C5)cc4)nc3)c(F)c2)ccc1Cl` [Compound 1199], the EC50 under setting [1] is below 800 nM. On the same count and under the same terms, next, `CCCCCCCOc1ccc(-c2cnc(-c3ccc(C[C@H](NC(=O)c4ccc(CC)s4)C(=O)N[C@H](C)C(=O)O)cc3)nc2)cc1` [Compound 839]: 800 to 2500 nM; `CCCCCCOc1ccc(-c2cnc(-c3ccc(C[C@H](NC(=O)c4ccc(C(C)(C)C)cc4)C(=O)N[C@H](C)C(=O)O)cc3)nc2)cc1` [Compound 719]: 800 to 2500 nM. Turning to `CCCc1ccc(-c2ccc(-c3cnc(-c4ccc(C[C@H](NC(=O)c5ccc(C(C)(C)C)s5)C(=O)N[C@H](C)C(=O)O)cc4)nc3)c(F)c2)cc1` [Compound 1320], under setting [2], the EC50 is below 800 nM. `CCCCCCCOc1ccc(-c2cnc(-c3ccc(C[C@H](NC(=O)c4ccc(CC)cn4)C(=O)N4CC[C@H](C(=O)O)C4)cc3)nc2)cc1` [Compound 1098]: the EC50 under setting [1] was 2500 to 5000 nM. On to `Cc1ccc(-c2ccc(-c3cnc(-c4ccc(C[C@H](NC(=O)c5ccc(C(C)(C)C)s5)C(=O)N5CC(C(=O)O)C5)cc4)nc3)c(F)c2)cc1` [Compound 1207], for which, under setting [2], the EC50 was below 800 nM. The same measure, in the same setting: with `CCC[C@H]1CC[C@H](C2CCN(c3cnc(-c4ccc(C[C@H](NC(=O)c5ccc(C(C)C)s5)C(=O)N5CC(C(=O)O)C5)cc4)nc3)CC2)CC1` [Compound 1534] the figure was below 800 nM. On the same count and under the same terms, next, `CCCCC1CCC(C2CCN(c3cnc(-c4ccc(C[C@H](NC(=O)c5ccc(C(C)(C)C)s5)C(=O)N5CC(C(=O)O)C5)cc4)nc3)CC2)CC1` (stereo partly drawn) [Compound 1428]: below 800 nM.
